From ChEMBL document CHEMBL2434925, “Synthesis and antiviral activity of a novel class of (5-oxazolyl)phenyl amines” (Eur J Med Chem, 2013)

Legend:
[1] = system: Hepatitis C virus; assay: Antiviral activity against HCV expressing pFL-J6/JFH/JC1 infected in human Huh7.5 cells assessed as inhibition of viral RNA synthesis after 96 hrs by one-step RT-PCR analysis; assay type: functional, organism-based, Hepacivirus hominis; conditions: Huh-7, 96 h
[2] = Cytotoxicity against human Huh7.5 cells after 96 hrs by MTT assay; assay type: cell-based, Huh-7
[3] = Selectivity index, ratio of CC50 for human Huh7.5 cells to IC50 for HCV expressing pFL-J6/JFH/JC1; assay type: functional, Huh-7
[4] = system: Coxsackievirus B6; assay: Antiviral activity against Coxsackie B6 virus Schmitt in african green monkey Vero cells assessed as inhibition virus-induced cytopathic effect after 48 hrs; assay type: functional, organism-based; conditions: Enterovirus B
[5] = Cytotoxicity against african green monkey Vero cells after 96 hrs by MTT assay; assay type: cell-based; conditions: chlorocebus sabaeus
[6] = Selectivity index, ratio of CC50 for african green monkey Vero cells to IC50 for Coxsackie B3 virus Nancy; assay type: functional
[7] = Selectivity index, ratio of CC50 for african green monkey Vero cells to IC50 for Coxsackie B3 virus Schmitt; assay type: functional
[8] = system: Coxsackievirus B3; assay: Antiviral activity against Coxsackie B3 virus Nancy in african green monkey Vero cells assessed as inhibition virus-induced cytopathic effect after 48 hrs; assay type: functional, organism-based; conditions: Enterovirus B

SMILES	IC50 [1]	CC50 at 96 h [2]	Ratio CC50/IC50 [3]	IC50 [4]	CC50 at 96 h [5]	Ratio CC50/IC50 [6]	Ratio CC50/IC50 [7]	IC50 [8]
COc1cc(NCc2cccs2)ccc1-c1cnco1	0.28 µM	51.3 µM	183.3	1.54 µM	17.9 µM	19.1	11.7	0.94 µM
COc1cc(/N=C/c2cccs2)ccc1-c1cnco1	5.72 µM	> 100 µM	>17.5	45.1 µM	406 µM	4	9	101 µM
COc1ccc2[nH]cc(CNc3ccc(-c4cnco4)c(OC)c3)c2c1	0.82 µM	> 100 µM	>122	> 7.07 µM	36.7 µM			> 7.07 µM
COc1cc(/N=C/c2ccc(F)cc2)ccc1-c1cnco1	1.18 µM	> 100 µM	>84.8	58.2 µM	324 µM	7.5	5.6	43.3 µM
COc1ccc(-c2cnco2)cc1NCc1ccc(C)s1	2.42 µM	52.9 µM	21.9	12.8 µM	42.7 µM	5.2	3.4	8.22 µM
COc1cc(NCc2cccc(C)n2)ccc1-c1cnco1	2.4 µM	62.7 µM	26.1	6.36 µM	75.2 µM	5.2	11.8	14.5 µM
COc1cc(NCc2cccnc2Cl)ccc1-c1cnco1	1.8 µM	40.5 µM	22.5	3.33 µM	40.6 µM	9.7	12.2	4.21 µM
COc1cc(NCc2ccc(OC)c(OC)c2OC)ccc1-c1cnco1	0.66 µM	32 µM	48.4	1.7 µM	28.8 µM	39.5	17	0.73 µM
CCc1ccc(CNc2ccc(-c3cnco3)c(OC)c2)s1	1.98 µM	39.1 µM	19.8	4.55 µM	13.6 µM	6.8	3	2 µM
COc1cc(/N=C/C=C/c2ccccc2)ccc1-c1cnco1	6.99 µM	> 100 µM	>14.3	18.9 µM	105 µM	7	5.6	15.1 µM
COc1cc(NCc2ccc(C)s2)ccc1-c1cnco1	2.05 µM	34.4 µM	16.8	2.1 µM	24.7 µM	7	11.8	3.52 µM
COc1ccc(CNc2ccc(-c3cnco3)c(OC)c2)cc1	1.4 µM	41.3 µM	29.5	3.42 µM	23.9 µM	27.5	7	0.87 µM
COc1cc(/N=C/c2ccc([N+](=O)[O-])o2)ccc1-c1cnco1	1.24 µM	20.5 µM	16.5	4.88 µM	13.7 µM		2.8	> 7.88 µM
COc1cc(NCc2ccncc2)ccc1-c1cnco1	5.71 µM	72.2 µM	12.7	15.2 µM	342 µM	13	22.5	26.3 µM
COc1cc(NCc2scnc2C)ccc1-c1cnco1	6.88 µM	58.5 µM	8.5	10.6 µM	73.7 µM	13	7	5.67 µM
COc1ccc(CNc2ccc(-c3cnco3)c(OC)c2)cn1	3.25 µM	56.8 µM	17.5	10.1 µM	371 µM	61.5	36.7	6.03 µM
COc1ccccc1/C=C/CNc1ccc(-c2cnco2)c(OC)c1	2.3 µM	29.2 µM	12.7	7.34 µM	12.7 µM	4	1.7	3.15 µM
COc1cc(NCc2cc(OC)c(OC)c(OC)c2)ccc1-c1cnco1	> 3.71 µM	36.6 µM	<9.9	11.6 µM	41.6 µM	3.6	3.6	11.6 µM
COc1c(C)c2c(c(O)c1C/C=C(\C)CCC(=O)O)C(=O)OC2 [MYCOPHENOLIC ACID]	4.16 µM	> 100 µM	>24	69.4 µM	624 µM	61.5	9	10.2 µM
NC(=O)c1ncn([C@@H]2O[C@H](CO)[C@@H](O)[C@H]2O)n1 [RIBAVIRIN]				910 µM	8190 µM	5.2		1580 µM
COc1cc(NC/C=C/c2ccccc2)ccc1-c1cnco1	2.38 µM	> 100 µM	>42	4.67 µM	72.5 µM	20.6	15.5	3.52 µM
COc1cc(NCc2ccc(Cl)s2)ccc1-c1cnco1	0.33 µM	43.2 µM	130.8	0.84 µM	53.8 µM	39.3	64	1.37 µM
COc1cc(NCc2ccco2)ccc1-c1cnco1	1.06 µM	80 µM	75.4	6.96 µM	57 µM	7.5	8.2	7.6 µM
COc1cc(NCc2ccc(C)o2)ccc1-c1cnco1	1.01 µM	63.4 µM	62.8	6.78 µM	45.1 µM	9	6.7	5.01 µM
COc1ccc(-c2cnco2)cc1NCc1cccs1	3.08 µM	> 100 µM	>32.5	11.3 µM	53.8 µM	2.1	4.8	25.9 µM
COc1cc(NCc2csc3ccccc23)ccc1-c1cnco1	> 1.24 µM	23.6 µM	<19.1	2.43 µM	12.7 µM	6.8	5.2	1.87 µM
COc1cc(NCc2ccc(Br)s2)ccc1-c1cnco1	> 3.75 µM	39.4 µM	<10.5	1.2 µM	47.3 µM	9.2	39.4	5.14 µM
